The values below come from ChEMBL document CHEMBL3396986, “Novel β-amyloid aggregation inhibitors possessing a turn mimic” (Bioorg Med Chem Lett, 2015).

Calls of active or inactive are those of the source. The rule behind the calls is not given here. *1 amine or outer side, *2 acyl side, *3 side chain or, on linkers, in order; H or OH if unused. Where a SMILES comes first, the peptide text is derived from it. [ ]: non-standard residue; d: D form. X1 = O=C(CCc1cccc2c1oc1c(CCN[*:1])cccc12)[*:2]; PEG8 = NCCOCCOCCOCCOCCOCCOCCOCCOCCC(=O)O; Met(O) = CS(=O)CC[C@H](N)C(=O)O

For test [1], the target named is Amyloid-beta precursor protein (Homo sapiens) (UniProt P05067). As to the kind of experiment: Inhibition of pH-click Amyloid beta (1 to 42) (unknown origin) aggregation after 48 hrs by Thioflavin-T fluorescence assay. Further details: concentration or dose not given beside the values. To be noted: concentration not given here.
Sequence of Amyloid-beta precursor protein (Homo sapiens) (P05067 whole entry): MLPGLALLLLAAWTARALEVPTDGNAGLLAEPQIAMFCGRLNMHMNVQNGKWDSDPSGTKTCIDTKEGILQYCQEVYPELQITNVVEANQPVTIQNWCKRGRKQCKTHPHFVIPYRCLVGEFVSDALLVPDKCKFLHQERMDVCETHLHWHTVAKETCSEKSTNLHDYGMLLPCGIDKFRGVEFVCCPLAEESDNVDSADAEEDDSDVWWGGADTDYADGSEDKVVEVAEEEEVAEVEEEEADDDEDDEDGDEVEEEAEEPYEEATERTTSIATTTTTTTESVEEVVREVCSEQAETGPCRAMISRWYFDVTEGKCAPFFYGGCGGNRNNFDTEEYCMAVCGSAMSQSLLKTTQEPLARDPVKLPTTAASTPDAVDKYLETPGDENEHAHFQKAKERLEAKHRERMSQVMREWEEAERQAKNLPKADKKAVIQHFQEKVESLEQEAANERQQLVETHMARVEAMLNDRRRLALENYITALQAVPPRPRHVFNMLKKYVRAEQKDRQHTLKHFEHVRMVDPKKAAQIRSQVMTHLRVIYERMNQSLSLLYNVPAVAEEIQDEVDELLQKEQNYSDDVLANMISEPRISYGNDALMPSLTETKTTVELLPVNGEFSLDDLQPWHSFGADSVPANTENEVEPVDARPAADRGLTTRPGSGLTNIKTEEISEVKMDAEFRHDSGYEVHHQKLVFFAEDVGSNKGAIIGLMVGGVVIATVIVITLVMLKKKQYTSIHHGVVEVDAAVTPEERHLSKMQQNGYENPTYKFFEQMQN
Test [2] shares this target. Description: Inhibition of pH-click Amyloid beta (1 to 42) (unknown origin) aggregation after 24 hrs by Thioflavin-T fluorescence assay. The conditions noted are these: concentration not given here. Further details: concentration or dose not given beside the values.
Test [3] shares this target. Description: Inhibition of pH-click Amyloid beta (1 to 42) (unknown origin) aggregation 6 to 48 hrs by Thioflavin-T fluorescence assay.
Test [4] has the same target. Description: Inhibition of authentic Amyloid beta (1 to 42) (unknown origin) aggregation 6 to 48 hrs by Thioflavin-T fluorescence assay.

A word on the inhibition: it is the drop in the measured response relative to a control, in per cent.

As to `CC[C@H](C)[C@H](NC(=O)[C@H](C)NC(=O)CCc1cccc2c1oc1c(CCNC(=O)[C@H](CO)NC(=O)CNC(=O)[C@@H](NC(=O)[C@@H](N)CC(=O)O)C(C)C)cccc12)C(=O)N[C@H](C(=O)NCC(=O)NCCOCCOCCOCCOCCOCCOCCOCCOCCC(=O)O)[C@@H](C)CC` (H-DVGS[X1]AIIG[PEG8]-OH), the inhibition in test [1] and in test [2] was less than 5% each time.
`CC[C@H](C)[C@H](NC(=O)[C@H](C)NC(=O)CNC(=O)CCc1cccc2c1oc1c(CCNC(=O)CNC(=O)[C@@H](NC(=O)[C@H](CC(=O)O)NC(=O)[C@@H](N)CCC(=O)O)C(C)C)cccc12)C(=O)N[C@H](C(=O)NCCOCCOCCOCCOCCOCCOCCOCCOCCC(=O)O)[C@@H](C)CC` (H-EDVG[X1]GAII[PEG8]-OH): the inhibition worked out at 20% in test [1] and 16% in test [2].
On the same counts, the results for `CC[C@H](C)[C@H](NC(=O)CCc1cccc2c1oc1c(CCNC(=O)[C@H](CCCCN)NC(=O)[C@H](CC(N)=O)NC(=O)[C@H](CO)NC(=O)CN)cccc12)C(=O)NCC(=O)N[C@@H](CC(C)C)C(=O)N[C@@H](CC[S+](C)[O-])C(=O)NCCOCCOCCOCCOCCOCCOCCOCCOCCC(=O)O` (some centres undefined) (H-GSNK[X1]IGL[Met(O)][PEG8]-OH) are less than 5% and 12%.
As for `CC(C)C[C@H](NC(=O)CNC(=O)CCc1cccc2c1oc1c(CCNC(=O)CNC(=O)[C@H](CCCCN)NC(=O)[C@H](CC(N)=O)NC(=O)[C@@H](N)CO)cccc12)C(=O)N[C@@H](CC[S+](C)[O-])C(=O)N[C@H](C(=O)NCCOCCOCCOCCOCCOCCOCCOCCOCCC(=O)O)C(C)C` (some centres undefined) (H-SNKG[X1]GL[Met(O)]V[PEG8]-OH), the inhibition in test [1] is less than 5%; in test [2], 7%.
With `CC[C@H](C)[C@H](NC(=O)CCc1cccc2c1oc1c(CCNC(=O)[C@H](CC(N)=O)NC(=O)[C@H](CO)NC(=O)CNC(=O)[C@@H](N)C(C)C)cccc12)C(=O)N[C@H](C(=O)NCC(=O)N[C@@H](CC(C)C)C(=O)NCCOCCOCCOCCOCCOCCOCCOCCOCCC(=O)O)[C@@H](C)CC` (H-VGSN[X1]IIGL[PEG8]-OH), the figures for the inhibition in test [1] and in test [2] were 39% and 49%, respectively.
The corresponding values for `CC[C@H](C)[C@H](NC(=O)[C@H](C)NC(=O)CCc1cccc2c1oc1c(CCNC(=O)[C@H](CO)NC(=O)CNC(=O)[C@@H](NC(=O)[C@H](CC(=O)O)NC(=O)CCOCCOCCOCCOCCOCCOCCOCCOCCN)C(C)C)cccc12)C(=O)N[C@H](C(=O)NCC(=O)O)[C@@H](C)CC` (H-[PEG8]DVGS[X1]AIIG-OH) are less than 5% and 10%.
On to `CC[C@H](C)[C@H](NC(=O)[C@@H](NC(=O)[C@H](C)NC(=O)CNC(=O)CCc1cccc2c1oc1c(CCNC(=O)CNC(=O)[C@@H](NC(=O)[C@H](CC(=O)O)NC(=O)[C@H](CCC(=O)O)NC(=O)CCOCCOCCOCCOCCOCCOCCOCCOCCN)C(C)C)cccc12)[C@@H](C)CC)C(=O)O` (H-[PEG8]EDVG[X1]GAII-OH), for which the results for the inhibition in test [1] and in test [2] were less than 5% and 13%, respectively.
Regarding `CC[C@H](C)[C@H](NC(=O)CCc1cccc2c1oc1c(CCNC(=O)[C@H](CCCCN)NC(=O)[C@H](CC(N)=O)NC(=O)[C@H](CO)NC(=O)CNC(=O)CCOCCOCCOCCOCCOCCOCCOCCOCCN)cccc12)C(=O)NCC(=O)N[C@@H](CC(C)C)C(=O)N[C@@H](CC[S+](C)[O-])C(=O)O` (some centres undefined) (H-[PEG8]GSNK[X1]IGL[Met(O)]-OH), the inhibition was less than 5% in test [1] and 9% in test [2].
The corresponding values for `CC(C)C[C@H](NC(=O)CNC(=O)CCc1cccc2c1oc1c(CCNC(=O)CNC(=O)[C@H](CCCCN)NC(=O)[C@H](CC(N)=O)NC(=O)[C@H](CO)NC(=O)CCOCCOCCOCCOCCOCCOCCOCCOCCN)cccc12)C(=O)N[C@@H](CC[S+](C)[O-])C(=O)N[C@H](C(=O)O)C(C)C` (some centres undefined) (H-[PEG8]SNKG[X1]GL[Met(O)]V-OH) are less than 5% and 13%.
On to `CC[C@H](C)[C@H](NC(=O)CCc1cccc2c1oc1c(CCNC(=O)[C@H](CC(N)=O)NC(=O)[C@H](CO)NC(=O)CNC(=O)[C@@H](NC(=O)CCOCCOCCOCCOCCOCCOCCOCCOCCN)C(C)C)cccc12)C(=O)N[C@H](C(=O)NCC(=O)N[C@@H](CC(C)C)C(=O)O)[C@@H](C)CC` (H-[PEG8]VGSN[X1]IIGL-OH), for which the inhibition in test [1] and in test [2] was 56% throughout.
Consider `CC(C)C[C@@H](NC(=O)[C@H](N)CCCCN)C(=O)N[C@@H](C(=O)N[C@H](Cc1ccccc1)C(=O)N[C@H](Cc1ccccc1)C(=O)N[C@H](C)C(=O)O)C(C)C` (H-[dK][dL][dV][dF][dF][dA]-OH), for which the inhibition entry in test [3] and in test [4] was “Active” each time.
As for H-KLVFFA-OH, the inhibition entry in test [3] and in test [4] was “Active” in each case.
